In BigSolDB 2.1:

Nc1cc(Cl)nnc1Cl
Settings | solubility (mole fraction)
in 1,4-dioxane, 289.15 K | 0.00294
in 1,4-dioxane, 293.65 K | 0.00365
in 1,4-dioxane, 298.15 K | 0.00427
in 1,4-dioxane, 303.15 K | 0.00556
in 1,4-dioxane, 308.15 K | 0.0066
in 1,4-dioxane, 313.15 K | 0.00811
in 1,4-dioxane, 318.15 K | 0.00982
in 1,4-dioxane, 323.15 K | 0.0121
in THF, 290.05 K | 0.0443
in THF, 295.15 K | 0.0484
in THF, 299.15 K | 0.0517
in THF, 303.15 K | 0.0556
in THF, 305.15 K | 0.057
in THF, 308.15 K | 0.0604
in THF, 313.65 K | 0.0648
in THF, 318.15 K | 0.0688
in THF, 323.15 K | 0.0752
in acetone, 295.65 K | 0.0244
in acetone, 298.15 K | 0.0258
in acetone, 300.65 K | 0.0276
in acetone, 303.15 K | 0.0293
in acetone, 305.65 K | 0.0311
in acetone, 308.15 K | 0.0327
in acetone, 310.65 K | 0.0342
in acetone, 313.15 K | 0.036
in acetone, 315.65 K | 0.0377
in acetone, 318.15 K | 0.0393
in acetone, 320.65 K | 0.041
in acetone, 323.15 K | 0.0427
in dichloromethane, 295.15 K | 7.41e-05
in dichloromethane, 297.15 K | 0.000111
in dichloromethane, 299.15 K | 0.000174
in dichloromethane, 301.15 K | 0.000262
in dichloromethane, 303.15 K | 0.000387
in dichloromethane, 305.15 K | 0.000543
in dichloromethane, 307.15 K | 0.000811
in dichloromethane, 309.15 K | 0.00117
in ethyl acetate, 295.65 K | 0.00111
in ethyl acetate, 298.15 K | 0.00134
in ethyl acetate, 300.65 K | 0.00159
in ethyl acetate, 303.15 K | 0.00192
in ethyl acetate, 305.65 K | 0.00235
in ethyl acetate, 308.15 K | 0.00303
in ethyl acetate, 310.65 K | 0.00371
in ethyl acetate, 313.15 K | 0.0049
in ethyl acetate, 315.65 K | 0.00577
in methanol, 295.65 K | 0.0142
in methanol, 298.15 K | 0.0153
in methanol, 300.65 K | 0.0161
in methanol, 303.15 K | 0.0169
in methanol, 305.65 K | 0.0178
in methanol, 308.15 K | 0.0189
in methanol, 310.65 K | 0.0201
in methanol, 313.15 K | 0.0214
in methanol, 315.65 K | 0.0229
